US6673340B1, “Basement membrane degrading proteases as insect toxins and methods of use for same” (Iowa State University Research Foundation, Inc., priority 1999, dated 2004)

Test system: zinc metalloproteases
Test: Azocoll assay with selective protease inhibitor
Format: biochemical
Settings: 1 mM inhibitor, azocoll assay pH 7.6
Description: Azocoll assays were carried out as described by Fisher and Werb (1995). For assays on medium from cells infected with the viruses expressing the mammalian proteases, all medium samples were concentrated 10-fold except for medium from AcMLF9.STR1-infected cells. Samples for analysis of S. peregrina cathepsin L expression were not concentrated. Aliquots of infected cell medium (2.5 μl for AcMLF9. ScathL-infected cells, 40 μl for all other samples) were mixed with 200 μl of 2 mg/ml azocoll suspended either in 50 mM Tris, pH 7.6-10 mM CaCl2-200 mM NaCl-50 μM ZnSO4 (for detection of stromelysin-1 and gelatinase A activity) or in 0.1 M sodium acetate, pH 5.0 (for detection of cathepsin L activity) in a final volume of 240 μl. A control reaction with sufficient dispase (Boehringer Mannheim, Indianapolis, Ind.) to digest all azocoll in the reaction tube was used as a standard. […] Absorbance of the supernatant was measured at 520 nm for each reaction, and mg azocoll digested/ml medium was calculated based on the absorbance of the dispase control reaction (Fisher, S. J., and Werb, Z. 1995. The catabolism of extracellular matrix components. In “Extracellular Matrix: A Practical Approach” (M. A. Haralson, and J. R. Hassell, Eds.), pp. 261-287. Oxford University Press, New York).

Question: `c1cnc2c(c1)ccc1cccnc12` [1,10-phenanthroline] was tested. Which “Inhibition of proteolytic activity in supernatants of stromelysin- and gelatinase-expressing virus infections” value did it give?
Answer: inhibited
